These compounds were tested against T1, JAK2 (JH1domain-catalytic, Y1007F,Y1008F) kinase (Homo sapiens, UniProt O60674, Y1007F/Y1008F) (assay: JAK2 JH1 Domain Binding Assay). Conditions: qPCR readout.
T1 construct: JAK2 (JH1domain-catalytic, Y1007F,Y1008F) kinase was expressed as N-terminal fusion; made in house; host or cells: transiently transfected HEK293 cells
T1 sequence (O60674 849-1124 Y1007F/Y1008F limits assumed): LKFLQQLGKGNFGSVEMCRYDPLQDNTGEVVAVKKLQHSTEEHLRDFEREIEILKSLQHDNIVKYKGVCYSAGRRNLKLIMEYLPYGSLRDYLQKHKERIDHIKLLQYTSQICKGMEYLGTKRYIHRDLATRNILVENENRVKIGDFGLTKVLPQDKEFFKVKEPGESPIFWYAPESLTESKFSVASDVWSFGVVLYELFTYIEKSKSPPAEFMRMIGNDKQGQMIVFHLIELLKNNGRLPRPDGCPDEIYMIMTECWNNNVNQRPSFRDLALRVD
`CNc1cn2ncc(Oc3cnc4nc(Nc5ccc(CN6CCC(F)(F)C6)c(C(F)(F)F)c5)n(C)c4c3Cl)c2cn1` [Example I-326, 7-chloro-N-(4-((3,3-difluoropyrrolidin-1-yl)methyl)-3-(trifluoromethyl)phenyl)-1-methyl-6-((6-(methylamino)pyrazolo[1,5-a]pyrazin-3-yl)oxy)-1H-imidazo[4,5-b]pyridin-2-amine] was tested, and the Kd was 50 to 1000 nM.
`CNc1cn2ncc(Oc3cnc4nc(Nc5cc(CN(C)C)cc(C(F)(F)F)c5)n(C)c4c3Cl)c2cn1` [Example I-327, 7-chloro-N-(3-((dimethylamino)methyl)-5-(trifluoromethyl)phenyl)-1-methyl-6-((6-(methylamino)pyrazolo[1,5-a]pyrazin-3-yl)oxy)-1H-imidazo[4,5-b]pyridin-2-amine] was tested, and the Kd was 10 to 50 nM.
In the case of `CNc1cn2ncc(Oc3cnc4nc(Nc5cc(C(F)(F)F)cn(-c6cnn(C)c6)c5=O)n(C)c4c3Cl)c2cn1` [Example I-328, 3-((7-chloro-1-methyl-6-((6-(methylamino)pyrazolo[1,5-a]pyrazin-3-yl)oxy)-1H-imidazo[4,5-b]pyridin-2-yl)amino)-1-(1-methyl-1H-pyrazol-4-yl)-5-(trifluoromethyl)pyridin-2(1H)-one], the Kd is reported as 10 to 50 nM.
For `Cc1c[nH]c2ncc(Oc3cnc4nc(Nc5cc(C(F)(F)F)cn(C)c5=O)n(C)c4c3C#N)cc12` [Example I-329, 1-methyl-6-((3-methyl-1H-pyrrolo[2,3-b]pyridin-5-yl)oxy)-2-((1-methyl-2-oxo-5-(trifluoromethyl)-1,2-dihydropyridin-3-yl)amino)-1H-imidazo[4,5-b]pyridine-7-carbonitrile], the Kd was under 10 nM.
For `Cn1c(Nc2cc(C(F)(F)F)n(C3CC4(COC4)C3)n2)nc2ncc(Oc3cnc4[nH]ncc4c3)c(C#N)c21` [Example I-330, 6-((1H-pyrazolo[3,4-b]pyridin-5-yl)oxy)-2-((1-(2-oxaspiro[3.3]heptan-6-yl)-5-(trifluoromethyl)-1H-pyrazol-3-yl)amino)-1-methyl-1H-imidazo[4,5-b]pyridine-7-carbonitrile], the Kd was under 10 nM.
With `CNc1cn2ncc(Oc3cnc4nc(Nc5cc(OC[C@@H]6CCCN6C)cc(C(F)(F)F)c5)n(C)c4c3Cl)c2cn1` [Example I-331, (S)-7-chloro-1-methyl-6-((6-(methylamino)pyrazolo[1,5-a]pyrazin-3-yl)oxy)-N-(3-((1-methylpyrrolidin-2-yl)methoxy)-5-(trifluoromethyl)phenyl)-1H-imidazo[4,5-b]pyridin-2-amine] the Kd was under 10 nM.
In the case of `CNc1cn2ncc(Oc3cnc4nc(Nc5cc(OC[C@H]6CCCN6C)cc(C(F)(F)F)c5)n(C)c4c3Cl)c2cn1` [Example I-332, (R)-7-chloro-1-methyl-6-((6-(methylamino)pyrazolo[1,5-a]pyrazin-3-yl)oxy)-N-(3-((1-methylpyrrolidin-2-yl)methoxy)-5-(trifluoromethyl)phenyl)-1H-imidazo[4,5-b]pyridin-2-amine], the Kd is reported as under 10 nM.
`Cn1cc(C(F)(F)F)cc(Nc2nc3ncc(Oc4cnc5[nH]nc(C(F)(F)F)c5c4)c(C#N)c3n2C)c1=O` [Example I-333, 1-methyl-2-((1-methyl-2-oxo-5-(trifluoromethyl)-1,2-dihydropyridin-3-yl)amino)-6-((3-(trifluoromethyl)-1H-pyrazolo[3,4-b]pyridin-5-yl)oxy)-1H-imidazo[4,5-b]pyridine-7-carbonitrile] gave a Kd of 10 to 50 nM.
`Cc1c(Oc2cnc3nc(Nc4cc(C(F)(F)F)cn(C)c4=O)n(C)c3c2C#N)cnc2[nH]ccc12` [Example I-334, 1-methyl-6-((4-methyl-1H-pyrrolo[2,3-b]pyridin-5-yl)oxy)-2-((1-methyl-2-oxo-5-(trifluoromethyl)-1,2-dihydropyridin-3-yl)amino)-1H-imidazo[4,5-b]pyridine-7-carbonitrile] gave a Kd of 10 to 50 nM.
`Cn1cc(C(F)(F)F)cc(Nc2nc3ncc(Oc4cnc5[nH]ccc5c4F)c(C#N)c3n2C)c1=O` [Example I-335, 6-((4-fluoro-1H-pyrrolo[2,3-b]pyridin-5-yl)oxy)-1-methyl-2-((1-methyl-2-oxo-5-(trifluoromethyl)-1,2-dihydropyridin-3-yl)amino)-1H-imidazo[4,5-b]pyridine-7-carbonitrile] gave a Kd of under 10 nM.
Compound `Cn1cc(C(F)(F)F)cc(Nc2nc3ncc(Oc4cnn5cc(OCCN6CCOCC6)ccc45)c(C#N)c3n2C)c1=O` [Example I-336, 1 1-methyl-2-((1-methyl-2-oxo-5-(trifluoromethyl)-1,2-dihydropyridin-3-yl)amino)-6-((6-(2-morpholinoethoxy)pyrazolo[1,5-a]pyridin-3-yl)oxy)-1H-imidazo[4,5-b]pyridine-7-carbonitrile] has a Kd of under 10 nM.
With `Cn1cc(C(F)(F)F)cc(Nc2nc3ncc(Oc4cnc5[nH]nc(C6CC6)c5c4)c(C#N)c3n2C)c1=O` [Example I-337, 6-((3-cyclopropyl-1H-pyrazolo[3,4-b]pyridin-5-yl)oxy)-1-methyl-2-((1-methyl-2-oxo-5-(trifluoromethyl)-1,2-dihydropyridin-3-yl)amino)-1H-imidazo[4,5-b]pyridine-7-carbonitrile] the Kd was under 10 nM.
With `CNc1cn2ncc(Oc3cnc4nc(Nc5cc6n(n5)CCCC6(C)C)n(C)c4c3Cl)c2cn1` [Example I-338, 7-chloro-N-(4,4-dimethyl-4,5,6,7-tetrahydropyrazolo[1,5-a]pyridin-2-yl)-1-methyl-6-((6-(methylamino)pyrazolo[1,5-a]pyrazin-3-yl)oxy)-1H-imidazo[4,5-b]pyridin-2-amine] the Kd was under 10 nM.
With `CNc1cn2ncc(Oc3cnc4nc(Nc5cc(-n6cnc(C)c6)cc(C(F)(F)F)c5)n(C)c4c3Cl)c2cn1` [Example I-339, 7-chloro-1-methyl-N-(3-(4-methyl-1H-imidazol-1-yl)-5-(trifluoromethyl)phenyl)-6-((6-(methylamino)pyrazolo[1,5-a]pyrazin-3-yl)oxy)-1H-imidazo[4,5-b]pyridin-2-amine] the Kd was under 10 nM.
For `CNc1cn2ncc(Oc3cnc4nc(Nc5cc(C(F)(F)F)n([C@@H]6CCOC6)n5)n(C)c4c3Cl)c2cn1` [Example I-340, (R)-7-chloro-1-methyl-6-((6-(methylamino)pyrazolo[1,5-a]pyrazin-3-yl)oxy)-N-(1-(tetrahydrofuran-3-yl)-5-(trifluoromethyl)-1H-pyrazol-3-yl)-1H-imidazo[4,5-b]pyridin-2-amine], the Kd was under 10 nM.
`Cc1n[nH]c2ncc(Oc3cnc4nc(Nc5cc(C(F)(F)F)cn(C)c5=O)n(C)c4c3C#N)cc12` [Example I-341, 1-methyl-6-((3-methyl-1H-pyrazolo[3,4-b]pyridin-5-yl)oxy)-2-((1-methyl-2-oxo-5-(trifluoromethyl)-1,2-dihydropyridin-3-yl)amino)-1H-imidazo[4,5-b]pyridine-7-carbonitrile] gave a Kd of under 10 nM.
`Cn1c(Nc2ccc(CN3CCCC3)c(C(F)(F)F)c2)nc2ncc(Oc3cnn4ccncc34)c(C#N)c21` [Example I-342, 1-methyl-6-(pyrazolo[1,5-a]pyrazin-3-yloxy)-2-((4-(pyrrolidin-1-ylmethyl)-3-(trifluoromethyl)phenyl)amino)-1H-imidazo[4,5-b]pyridine-7-carbonitrile] gave a Kd of 10 to 50 nM.
Work on `CCn1c(C(C)(C)C)ncc(Nc2nc3ncc(Oc4cnn5cc(NC)ncc45)c(Cl)c3n2C)c1=O` [Example I-345, 2-(tert-butyl)-5-((7-chloro-1-methyl-6-((6-(methylamino)pyrazolo[1,5-a]pyrazin-3-yl)oxy)-1H-imidazo[4,5-b]pyridin-2-yl)amino)-3-ethylpyrimidin-4(3H)-one] yielded a Kd of 10 to 50 nM.
`CNc1cn2ncc(Oc3cnc4nc(Nc5cc(C(C)(C)C)n([C@H]6CCN(C)C6)n5)n(C)c4c3Cl)c2cn1` [Example I-346, (S)—N-(5-(tert-butyl)-1-(1-methylpyrrolidin-3-yl)-1H-pyrazol-3-yl)-7-chloro-1-methyl-6-((6-(methylamino)pyrazolo[1,5-a]pyrazin-3-yl)oxy)-1H-imidazo[4,5-b]pyridin-2-amine] gave a Kd of 10 to 50 nM.
`CNc1cn2ncc(Oc3cnc4nc(Nc5cc(C(C)(C)C)n([C@@H]6CCN(C)C6)n5)n(C)c4c3Cl)c2cn1` [Example I-347, (R)—N-(5-(tert-butyl)-1-(1-methylpyrrolidin-3-yl)-1H-pyrazol-3-yl)-7-chloro-1-methyl-6-((6-(methylamino)pyrazolo[1,5-a]pyrazin-3-yl)oxy)-1H-imidazo[4,5-b]pyridin-2-amine] gave a Kd of 50 to 1000 nM.
`CNc1cn2ncc(Oc3cnc4nc(Nc5cc(C(=O)N(C)C)c(F)c(C(F)(F)F)c5)n(C)c4c3Cl)c2cn1` [Example I-348, 5-((7-chloro-1-methyl-6-((6-(methylamino)pyrazolo[1,5-a]pyrazin-3-yl)oxy)-1H-imidazo[4,5-b]pyridin-2-yl)amino)-2-fluoro-N,N-dimethyl-3-(trifluoromethyl)benzamide] showed a Kd of 10 to 50 nM.
Compound `COc1c[nH]c2ncc(Oc3cnc4nc(Nc5cc(C(F)(F)F)cn(C)c5=O)n(C)c4c3C#N)cc12` [Example I-349, 6-((3-methoxy-1H-pyrrolo[2,3-b]pyridin-5-yl)oxy)-1-methyl-2-((1-methyl-2-oxo-5-(trifluoromethyl)-1,2-dihydropyridin-3-yl)amino)-1H-imidazo[4,5-b]pyridine-7-carbonitrile] has a Kd of under 10 nM.
Compound `CNc1cn2ncc(Oc3cnc4nc(Nc5cc(N6CCN(C)CC6)cc(C(F)(F)F)c5)n(C)c4c3Cl)c2cn1` [Example I-351, 7-chloro-1-methyl-6-((6-(methylamino)pyrazolo[1,5-a]pyrazin-3-yl)oxy)-N-(3-(4-methylpiperazin-1-yl)-5-(trifluoromethyl)phenyl)-1H-imidazo[4,5-b]pyridin-2-amine] has a Kd of 10 to 50 nM.
With `CNc1cn2ncc(Oc3cnc4nc(Nc5cc(C6CCN(C)CC6)cc(C(F)(F)F)c5)n(C)c4c3Cl)c2cn1` [Example I-353, 7-chloro-1-methyl-6-((6-(methylamino)pyrazolo[1,5-a]pyrazin-3-yl)oxy)-N-(3-(1-methylpiperidin-4-yl)-5-(trifluoromethyl)phenyl)-1H-imidazo[4,5-b]pyridin-2-amine] the Kd was under 10 nM.
`CNc1cc(F)c2c(Oc3cnc4nc(Nc5cc(C(F)(F)F)cn(C)c5=O)n(C)c4c3Cl)cnn2c1` [Example I-354, 3-((7-chloro-6-((4-fluoro-6-(methylamino)pyrazolo[1,5-a]pyridin-3-yl)oxy)-1-methyl-1H-imidazo[4,5-b]pyridin-2-yl)amino)-1-methyl-5-(trifluoromethyl)pyridin-2(1H)-one] gave a Kd of under 10 nM.
